Measured values from publication PMC9266750, “Catalase Inhibition by Aminoalkanol Derivatives with Potential Anti-Cancer Activity—In Vitro and In Silico Studies Using Capillary Electrophoresis Method” (International Journal of Molecular Sciences, 2022).
Where two headings read alike, the source gives them in different places.

Tests used:
CAT = settings: cited from earlier work
alkaline phosphatase = settings: cited from earlier work
[1] = biological target: T1, Catalase from human erythrocytes (EC 1.11.1.6, CAT) (Homo sapiens, UniProt P04040); test: Catalase (CAT) inhibition kinetics by capillary electrophoresis (hydrogen peroxide/guaiacol/tetraguaiacol); assay type: biochemical; settings: for Type of inhibition: from Km and Vmax versus control system; for IC50: from activity (%) versus inhibitor concentration plots, one value per compound; for Slope (slope angle of Lineweaver–Burk line): n = 6; for tetraguaiacol (TGCOL) concentration in the presence of inhibitor / guaiacol (GCOL) concentration in the presence of inhibitor: hydrogen peroxide 10 mM, 20.00 mM GCOL; for tetraguaiacol (TGCOL) concentration in the presence of inhibitor: without inhibitors 0.00 mM; for guaiacol (GCOL) concentration in the presence of inhibitor: without inhibitors 20.00 mM
T1 construct: Catalase from human erythrocytes (EC 1.11.1.6, CAT); purchased Sigma–Aldrich (Poznań, Poland); host or cells: human erythrocytes (natural source)
T1 sequence (P04040 2-527 limits assumed): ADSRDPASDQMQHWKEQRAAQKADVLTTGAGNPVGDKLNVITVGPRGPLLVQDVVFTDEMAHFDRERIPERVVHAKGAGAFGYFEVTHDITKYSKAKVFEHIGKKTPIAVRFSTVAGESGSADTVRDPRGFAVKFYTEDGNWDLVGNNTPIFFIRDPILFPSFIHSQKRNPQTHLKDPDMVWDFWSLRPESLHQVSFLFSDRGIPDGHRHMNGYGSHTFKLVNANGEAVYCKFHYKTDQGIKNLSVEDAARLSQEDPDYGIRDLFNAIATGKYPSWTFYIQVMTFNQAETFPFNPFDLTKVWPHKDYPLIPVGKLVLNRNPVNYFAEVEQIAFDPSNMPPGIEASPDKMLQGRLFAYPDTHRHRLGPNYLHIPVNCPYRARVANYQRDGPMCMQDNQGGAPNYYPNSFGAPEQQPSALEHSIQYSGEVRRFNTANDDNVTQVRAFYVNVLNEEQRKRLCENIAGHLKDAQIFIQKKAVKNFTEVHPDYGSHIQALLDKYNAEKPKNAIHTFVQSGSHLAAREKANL
From the text: In this study, we used the capillary electrophoresis (CE) method developed by us to determine the tetraguaiacol complex as a product of the catalase-catalyzed reaction (CAT) (Table 1) in the presence of the enzyme, hydrogen peroxide (HPER) (as a substrate), guaiacol (GCOL) and inhibitors (I), (II), (III) and (IV) (Figure 2). Based on this method, we investigated changes in the concentration of guaiacol reacting with changes in the concentration of hydrogen peroxide depending on the activity of catalase and changes in the concentrations of the formed tetraguaiacol as the final reaction product. The developed CE technique made it possible to measure all the parameters thanks to the possibility of using three wavelengths simultaneously in one analysis. Investigations of kinetic parameters were based on mutual measurements of concentration changes between guaiacol (as the second reactant reacting with hydrogen peroxide) and tetraguaiacol as the final reaction product.
For the development of this method, we optimized the buffer pH, separating background electrolyte (BGE) concentration, wavelength, temperature, and voltage in accordance with the earlier procedure. […]. All these separation systems were tested to achieve the best separation parameters, resolution, and analysis time for all components in the reaction mixture. The best separation of tetraguaiacol, guaiacol, catalase (CAT) and compounds (I), (II), (III), (IV) was obtained with 100 mM phosphate buffer (pH 7.5). The measurements were taken at 214, 274 and 470 nm with a fused-silica capillary (effective length: 20 cm, diameter: 50 μm). The capillary temperature was 25 °C, which allowed the best resolution to be achieved. Separation was carried out at 20 kV. Each sample was added to the capillary under hydrodynamic injection. Average detection times for guaiacol (GCOL), compounds (I), (II), (III), (IV), tetraguaiacol (TGCOL) and CAT were […], respectively (Figure 2). […]. […]
Electrophoretic separations of catalase (CAT), hydrogen peroxide, guaiacol (GCOL) tetra guaiacol (TGCOL), and inhibitors (I), (II), (III) and (IV) of catalase, by CE was performed using 100 mM (NaH2PO4) phosphate buffer as a background electrolyte (BGE) adjusted with 100 mM sodium hydroxide to the pH = 7.5. The samples were injected under 5 psi pressure for 3 s. The experiments were performed under constant current conditions (97 μA). The separation temperature was 25 °C, and the detection wavelengths were set at 214, 274 and 470 nm. Before the assay, the capillary was conditioned according to the previously described procedure.
Sample mixtures containing catalase (CAT), hydrogen peroxide (HPER), guaiacol (GCOL), tetra guaiacol (TGCOL), and inhibitors (I), (II), (III) and (IV) were introduced automatically by pressure injection (with 5 psi pressure for 3 s on the sample solution). At the day’s end, vials with anode and a cathode buffer were emptied and a running buffer was filled again at the start of the next day before the analysis. The detector wavelength was fixed at 470 nm. Hydrogen peroxide was not detected at wavelength of 470 nm. The appropriate parameters for analyzing CAT, TGCOL and (I), (II), (III) and (IV) inhibitors were as follows: phosphate buffer (pH = 7.5) of 100 mM concentration, 25 °C temperature, and 20 kV voltage.
The CAT in the amount of 10 μg was dissolved in the 10 mL 100 mM phosphate buffer, pH 7.5 and divided into several portions, which were stored at −20 °C. One aliquot was thawed each day and the CAT activity was checked. For kinetic studies a catalase solution with a final concentration of 1 µg/mL was prepared. The working solutions of GCOL, TGCOL and HPER in appropriate concentrations were prepared immediately before use by dilution with the phosphate buffer according to the previously described procedure. […]

acetylcholinesterase = settings: cited from earlier work
acid phosphatase = tested on: acid phosphatase; set-up: method as in PMID 34769193; settings: cited from earlier work
[2] = inhibitor 2.50 mM, without inhibitor 1.26 ± 0.02
[3] = inhibitor 2.50 mM, without inhibitor 23.31 ± 0.04

SMILES: [N-]=[N+]=[N-] [sodium azide]
- IC50 (CAT): 0.025 mM

SMILES: Nc1nc[nH]n1 [3-Amino-1,2,4-triazole]
- IC50 (CAT; specific catalase inhibitor): 6 mM

SMILES: CCC12C(=O)C(CC)(C(c3ccccc3)=C1c1ccccc1)C1C(=O)N(CC(O)CN(C)C)C(=O)C12 (stereo not shown) [Compound (II)]
- inhibition of enzymatic activity (alkaline phosphatase): inhibited
- Type of inhibition [1]: Competitive
- IC50 [1]: 12.8 ± 0.07 mM
- Vmax [1, 2]: 1.24 ± 0.06 mM/min
- Slope (slope angle of Lineweaver–Burk line) [1, 3]: 23.70 ± 0.05
- Vmax ([1]; inhibitor 5.00 mM): 1.24 ± 0.06 mM/min
- Slope (slope angle of Lineweaver–Burk line) ([1]; inhibitor 5.00 mM): 24.24 ± 0.05
- Vmax ([1]; inhibitor 10.00 mM): 1.26 ± 0.03 mM/min
- Slope (slope angle of Lineweaver–Burk line) ([1]; inhibitor 10.00 mM): 25.30 ± 0.06
- Vmax ([1]; inhibitor 15.00 mM): 1.25 ± 0.04 mM/min
- Slope (slope angle of Lineweaver–Burk line) ([1]; inhibitor 15.00 mM): 26.00 ± 0.04
- Vmax ([1]; inhibitor 20.00 mM): 1.24 ± 0.04 mM/min
- tetraguaiacol (TGCOL) concentration in the presence of inhibitor ([1]; inhibitor 20.00 mM): 2.44 mM
- guaiacol (GCOL) concentration in the presence of inhibitor ([1]; inhibitor 20.00 mM): 17.56 mM
- Slope (slope angle of Lineweaver–Burk line) ([1]; inhibitor 20.00 mM): 27.06 ± 0.05
- inhibition of enzymatic activity (acetylcholinesterase): inhibited
- inhibition of enzymatic activity (acid phosphatase): inhibited

SMILES: CC(C)NCC(O)CN1C(=O)C2C(C1=O)C1(C)C(=O)C2(C)C(c2ccccc2)=C1c1ccccc1 (stereo not shown) [Compound (III)]
- inhibition of enzymatic activity (alkaline phosphatase): inhibited
- Type of inhibition [1]: Competitive
- IC50 [1]: 10.3 ± 0.03 mM
- Vmax [1, 2]: 1.24 ± 0.07 mM/min
- Slope (slope angle of Lineweaver–Burk line) [1, 3]: 25.09 ± 0.04
- Vmax ([1]; inhibitor 5.00 mM): 1.25 ± 0.08 mM/min
- Slope (slope angle of Lineweaver–Burk line) ([1]; inhibitor 5.00 mM): 25.84 ± 0.05
- Vmax ([1]; inhibitor 10.00 mM): 1.24 ± 0.07 mM/min
- Slope (slope angle of Lineweaver–Burk line) ([1]; inhibitor 10.00 mM): 28.60 ± 0.04
- Vmax ([1]; inhibitor 15.00 mM): 1.24 ± 0.09 mM/min
- Vmax ([1]; inhibitor 20.00 mM): 1.25 ± 0.02 mM/min
- tetraguaiacol (TGCOL) concentration in the presence of inhibitor ([1]; inhibitor 20.00 mM): 8.29 mM
- guaiacol (GCOL) concentration in the presence of inhibitor ([1]; inhibitor 20.00 mM): 11.71 mM
- Slope (slope angle of Lineweaver–Burk line) ([1]; inhibitor 20.00 mM): 32.68 ± 0.02
- inhibition of enzymatic activity (acetylcholinesterase): inhibited
- inhibition of enzymatic activity (acid phosphatase): inhibited

SMILES: CCC12C(=O)C(CC)(C(c3ccccc3)=C1c1ccccc1)C1C(=O)N(CC(O)CNC(C)C)C(=O)C12 (stereo not shown) [Compound (I)]
- inhibition of enzymatic activity (alkaline phosphatase): inhibited
- Type of inhibition [1]: Competitive
- IC50 [1]: 11.4 ± 0.05 mM
- Vmax [1, 2]: 1.25 ± 0.04 mM/min
- Slope (slope angle of Lineweaver–Burk line) [1, 3]: 24.72 ± 0.05
- Vmax ([1]; inhibitor 5.00 mM): 1.24 ± 0.07 mM/min
- Slope (slope angle of Lineweaver–Burk line) ([1]; inhibitor 5.00 mM): 25.43 ± 0.05
- Vmax ([1]; inhibitor 10.00 mM): 1.25 ± 0.05 mM/min
- Slope (slope angle of Lineweaver–Burk line) ([1]; inhibitor 10.00 mM): 27.33 ± 0.06
- Vmax ([1]; inhibitor 15.00 mM): 1.24 ± 0.07 mM/min
- Slope (slope angle of Lineweaver–Burk line) ([1]; inhibitor 15.00 mM): 28.62 ± 0.06
- Vmax ([1]; inhibitor 20.00 mM): 1.25 ± 0.05 mM/min
- tetraguaiacol (TGCOL) concentration in the presence of inhibitor ([1]; inhibitor 20.00 mM): 5.86 mM
- guaiacol (GCOL) concentration in the presence of inhibitor ([1]; inhibitor 20.00 mM): 14.14 mM
- Slope (slope angle of Lineweaver–Burk line) ([1]; inhibitor 20.00 mM): 30.75 ± 0.04
- inhibition of enzymatic activity (acetylcholinesterase): inhibited
- inhibition of enzymatic activity (acid phosphatase): inhibited

SMILES: NO [hydroxylamine]
- IC50 (CAT): 0.02 mM

SMILES: CN(C)CC(O)CN1C(=O)C2C(C1=O)C1(C)C(=O)C2(C)C(c2ccccc2)=C1c1ccccc1 (stereo not shown) [Compound (IV)]
- inhibition of enzymatic activity (alkaline phosphatase): inhibited
- Type of inhibition [1]: Competitive
- IC50 [1]: 12.2 ± 0.06 mM
- Vmax [1, 2]: 1.25 ± 0.03 mM/min
- Slope (slope angle of Lineweaver–Burk line) [1, 3]: 24.33 ± 0.06
- Vmax ([1]; inhibitor 5.00 mM): 1.24 ± 0.06 mM/min
- Slope (slope angle of Lineweaver–Burk line) ([1]; inhibitor 5.00 mM): 25.00 ± 0.05
- Vmax ([1]; inhibitor 10.00 mM): 1.24 ± 0.06 mM/min
- Slope (slope angle of Lineweaver–Burk line) ([1]; inhibitor 10.00 mM): 26.24 ± 0.04
- Vmax ([1]; inhibitor 15.00 mM): 1.23 ± 0.05 mM/min
- Slope (slope angle of Lineweaver–Burk line) ([1]; inhibitor 15.00 mM): 27.30 ± 0.05
- Vmax ([1]; inhibitor 20.00 mM): 1.26 ± 0.02 mM/min
- tetraguaiacol (TGCOL) concentration in the presence of inhibitor ([1]; inhibitor 20.00 mM): 4.39 mM
- guaiacol (GCOL) concentration in the presence of inhibitor ([1]; inhibitor 20.00 mM): 15.61 mM
- Slope (slope angle of Lineweaver–Burk line) ([1]; inhibitor 20.00 mM): 29.27 ± 0.03
- inhibition of enzymatic activity (acetylcholinesterase): inhibited
- inhibition of enzymatic activity (acid phosphatase): inhibited
